The record followed here is patent US7452865B2, “Antagonistic analogs of GH RH (2003)” (The Administrare's of the Tulane Educational Fund, priority 2004, dated 2008).

For experiment [1], the system named is hGH-RH(1-29)NH2 induced GH release. The experiment in a line: Inhibition of GH release in superfused rat pituitary system. Type of experiment: cell-based. To be noted: for GH response (% of control) 0 min / GH response (% of control) 30 min / GH response (% of control) 60 min / GH response (% of control) 90 min / GH response (% of control) 120 min: antagonist 30 nM; for GH response (% of control) 0 min: 1 nM hGH-RH(1-29)NH2 at 0 min; for GH response (% of control) 30 min: 1 nM hGH-RH(1-29)NH2 at 30 min; for GH response (% of control) 60 min: 1 nM hGH-RH(1-29)NH2 at 60 min; for GH response (% of control) 90 min: 1 nM hGH-RH(1-29)NH2 at 90 min; for GH response (% of control) 120 min: 1 nM hGH-RH(1-29)NH2 at 120 min; for endocrine antagonistic potency: inhibition of the GH release stimulated by hGH-RH(1-29)NH2 (in words): general statement, in vitro and in vivo. The method, boiled down: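 Dispersed rat pituitary cells in superfusion were preincubated 9 min with analog at various concentrations, then stimulated with 1 nM hGH-RH(1-29)NH2 for 3 min, repeated at 30, 60, 90, 120 min to gauge duration. GH measured by double-antibody RIA; net integrated responses expressed as percent of the initial 1 nM GH-RH response.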

For experiment [2], the system named is GH-RH receptor isoforms on membrane fractions of human PC-3 prostate tumors. Format: binding. To be noted: for binding affinities to the tumoral receptors for GH-RH (in words): general statement. From the text: Ligand competition assays with ^125I-labeled GH-RH antagonist JV-1-42 were used to determine the binding affinities of GH-RH analogs to the GH-RH receptor isoforms on membrane fractions of human PC-3 prostate tumors. The methods used have been described in detail (Halmos G, Schally A V, Varga J L, Plonowski A, Rekasi Z, Czompoly T, Proc Natl Acad Sci USA 97: 10555-10560, 2000; Halmos G, Schally A V, Czompoly T, Krupa M, Varga J L, Rekasi Z, J Clin Endocrinol Metab 87: 4707-4714, 2002), hereby incorporated by reference. Briefly, radioiodinated derivatives of JV-142 are prepared by the chloramine-T method. PC-3 tumors, grown as xenografts in nude mice, are used to prepare crude membranes. PC-3 membrane homogenates are incubated with [^125I]JV-142 and increasing concentrations (10^−12 to 10^−6 M) of nonradioactive antagonist peptides as competitors. The pellet is separated by centrifugation and counted for radioactivity in a gamma-counter. The final binding affinities are estimated by K1 (dissociation constant of the inhibitor-receptor complex) and are determined by the Ligand PC and McPherson computer programs of Munson and Rodbard (P. J. Munson and D. Rodbard, Anal. Biochem. […]: 220-239, 1980). Relative affinities (R.A.) compared to reference peptides such as JV-1-36 or JV-1-38, are calculated as the ratio of K1 of the reference peptide to the K, of the tested GH-RH antagonist.

Square brackets hold non-standard residues; d marks the D form. Peptide text beside a SMILES is read from it. * marks the point of attachment. Phe(4-Cl) = N[C@@H](Cc1ccc(Cl)cc1)C(=O)O; C14 diacid = O=C(O)CCCCCCCCCCCCC(=O)*; HOOC(CH2)8CO = O=C(O)CCCCCCCCC(=O)*; hArg = N=C(N)NCCCC[C@H](N)C(=O)O; Cit = NC(=O)NCCC[C@H](N)C(=O)O; Decanoyl = CCCCCCCCCC(=O)*; Nle = CCCC[C@H](N)C(=O)O; Abu = CC[C@H](N)C(=O)O; PhAc = O=C(Cc1ccccc1)*

For `CCCCCCCCCC(=O)N[C@@H](Cc1ccc(O)cc1)C(=O)N[C@H](CCCNC(=N)N)C(=O)N[C@@H](CC(=O)O)C(=O)N[C@@H](C)C(=O)N[C@H](C(=O)N[C@@H](Cc1ccc(Cl)cc1)C(=O)N[C@H](C(=O)N[C@@H](CC(N)=O)C(=O)N[C@@H](CCCNC(=N)N)C(=O)N[C@@H](Cc1ccc(O)cc1)C(=O)N[C@@H](CCCNC(=N)N)C(=O)N[C@@H](CCCCN)C(=O)N[C@H](C(=O)N[C@@H](CC(C)C)C(=O)N[C@@H](CC)C(=O)N[C@@H](CCC(N)=O)C(=O)N[C@@H](CC(C)C)C(=O)N[C@@H](CO)C(=O)N[C@@H](C)C(=O)N[C@@H](CCCNC(=N)N)C(=O)N[C@@H](CCCCN)C(=O)N[C@@H](CC(C)C)C(=O)N[C@@H](CC(C)C)C(=O)N[C@@H](CCC(N)=O)C(=O)N[C@@H](CC(=O)O)C(=O)N[C@H](C(=O)N[C@@H](CCCC)C(=O)N[C@H](CCCNC(=N)N)C(=O)N[C@@H](CCCCNC(=N)N)C(N)=O)[C@@H](C)CC)C(C)C)[C@@H](C)O)[C@@H](C)CC` [Peptide 6, [CH3(CH2)8CO-Tyr^1, D-Arg^2, Phe(pCl)^6, Arg^9, Abu^15, Nle^27, D-Arg^28, Har^29]hGH-RH(1-29)NH2] (Decanoyl-Y[dR]DAI[Phe(4-Cl)]TNRYRKVL[Abu]QLSARKLLQDI[Nle][dR][hArg]-NH2), in experiment [1], the “GH response (% of control) 0 min” value is listed as 56 % of control, the “GH response (% of control) 30 min” value is 22 % of control, the “GH response (% of control) 60 min” value is recorded as 12 % of control and the “GH response (% of control) 90 min” value is on record as 15 % of control. Further, the “GH response (% of control) 120 min” value in experiment [1] is 19 % of control. Moreover, in experiment [2], the “Relative Affinities (R.A.) to membrane receptors on PC-3 human prostate cancers” value (“Relative Affinities” below) came to 0.6.
As to `CCCC[C@H](NC(=O)[C@@H](NC(=O)[C@H](CC(=O)O)NC(=O)[C@H](CCC(N)=O)NC(=O)[C@H](CC(C)C)NC(=O)[C@H](CC(C)C)NC(=O)[C@H](CCCCN)NC(=O)[C@H](CCCNC(=N)N)NC(=O)[C@H](C)NC(=O)[C@H](CO)NC(=O)[C@H](CC(C)C)NC(=O)[C@H](CCC(N)=O)NC(=O)[C@H](CC)NC(=O)[C@H](CC(C)C)NC(=O)[C@@H](NC(=O)[C@H](CCCCN)NC(=O)[C@H](CCCNC(=N)N)NC(=O)[C@H](Cc1ccc(O)cc1)NC(=O)[C@H](CCCNC(=N)N)NC(=O)[C@H](CC(N)=O)NC(=O)[C@@H](NC(=O)[C@H](Cc1ccc(Cl)cc1)NC(=O)[C@@H](NC(=O)[C@H](C)NC(=O)[C@H](CC(=O)O)NC(=O)[C@@H](CCCNC(=N)N)NC(=O)[C@H](Cc1ccc(O)cc1)NC(=O)CCCCCCCCC(=O)O)[C@@H](C)CC)[C@@H](C)O)C(C)C)[C@@H](C)CC)C(=O)N[C@H](CCCNC(=N)N)C(=O)N[C@@H](CCCCNC(=N)N)C(N)=O` [Peptide 7, [HOOC(CH2)8CO-Tyr^1, D-Arg^2, Phe(pCl)^6, Arg^9, Abu^15, Nle^27, D-Arg^28, Har^29]hGH-RH(1-29)NH2] ({HOOC(CH2)8CO}-Y[dR]DAI[Phe(4-Cl)]TNRYRKVL[Abu]QLSARKLLQDI[Nle][dR][hArg]-NH2), in experiment [1], the “GH response (% of control) 0 min” value is given as 23 % of control, the “GH response (% of control) 30 min” value is given as 13 % of control, the “GH response (% of control) 60 min” value was 11 % of control and the “GH response (% of control) 90 min” value is 14 % of control. In experiment [1], the “GH response (% of control) 120 min” value is 14 % of control and the “endocrine antagonistic potency: inhibition of the GH release stimulated by hGH-RH(1-29)NH2 (in words)” value is recorded as “high endocrine antagonistic potencies”. Besides, in experiment [2], the “Relative Affinities” value stood at 12 and the “binding affinities to the tumoral receptors for GH-RH (in words)” value (shortened to “binding affinities”) is recorded as “extremely high binding affinities”.
Take `CCCC[C@H](NC(=O)[C@@H](NC(=O)[C@H](CC(=O)O)NC(=O)[C@H](CCC(N)=O)NC(=O)[C@H](CC(C)C)NC(=O)[C@H](CC(C)C)NC(=O)[C@H](CCCCN)NC(=O)[C@H](CCCNC(=N)N)NC(=O)[C@H](C)NC(=O)[C@H](CO)NC(=O)[C@H](CC(C)C)NC(=O)[C@H](CCC(N)=O)NC(=O)[C@H](CC)NC(=O)[C@H](CC(C)C)NC(=O)[C@@H](NC(=O)[C@H](CCCCN)NC(=O)[C@H](CCCNC(=N)N)NC(=O)[C@H](Cc1ccc(O)cc1)NC(=O)[C@H](CCCNC(=N)N)NC(=O)[C@H](CC(N)=O)NC(=O)[C@@H](NC(=O)[C@H](Cc1ccc(Cl)cc1)NC(=O)[C@@H](NC(=O)[C@H](C)NC(=O)[C@H](CC(=O)O)NC(=O)[C@@H](CCCNC(=N)N)NC(=O)[C@H](Cc1ccc(O)cc1)NC(=O)CCCCCCCCCCCCC(=O)O)[C@@H](C)CC)[C@@H](C)O)C(C)C)[C@@H](C)CC)C(=O)N[C@H](CCCNC(=N)N)C(=O)N[C@@H](CCCCNC(=N)N)C(N)=O` [Peptide 11, [HOOC(CH2)12CO-Tyr^1, D-Arg^2, Phe(pCl)^6, Arg^9, Abu^15, Nle^27, D-Arg^28, Har^29]hGH-RH(1-29)NH2] ({C14 diacid}-Y[dR]DAI[Phe(4-Cl)]TNRYRKVL[Abu]QLSARKLLQDI[Nle][dR][hArg]-NH2): in experiment [1], the “GH response (% of control) 0 min” value is recorded as 14 % of control, the “GH response (% of control) 30 min” value is on record as 24 % of control, the “GH response (% of control) 60 min” value was 29 % of control and the “GH response (% of control) 90 min” value is reported as 34 % of control. Besides, in experiment [1], the “GH response (% of control) 120 min” value was 32 % of control. Also, in experiment [2], the “Relative Affinities” value was 1.3 and the “binding affinities” value is on record as “extremely high binding affinities”.
`CCCC[C@H](NC(=O)[C@@H](NC(=O)[C@H](CC(=O)O)NC(=O)[C@H](CCC(N)=O)NC(=O)[C@H](CC(C)C)NC(=O)[C@H](CC(C)C)NC(=O)[C@H](CCCCN)NC(=O)[C@H](CCCNC(=N)N)NC(=O)[C@H](C)NC(=O)[C@H](CO)NC(=O)[C@H](CC(C)C)NC(=O)[C@H](CCC(N)=O)NC(=O)[C@H](CC)NC(=O)[C@H](CC(C)C)NC(=O)[C@@H](NC(=O)[C@H](CCCCN)NC(=O)[C@H](CCCNC(=N)N)NC(=O)[C@H](Cc1ccc(O)cc1)NC(=O)[C@H](CCCNC(N)=O)NC(=O)[C@H](CCCNC(N)=O)NC(=O)[C@@H](NC(=O)[C@H](Cc1ccc(Cl)cc1)NC(=O)[C@@H](NC(=O)[C@H](C)NC(=O)[C@H](CC(=O)O)NC(=O)[C@@H](CCCNC(=N)N)NC(=O)[C@H](Cc1ccc(O)cc1)NC(=O)Cc1ccccc1)[C@@H](C)CC)[C@@H](C)O)C(C)C)[C@@H](C)CC)C(=O)N[C@H](CCCNC(=N)N)C(=O)N[C@@H](CCCCNC(=N)N)C(N)=O` [Peptide 22, [PhAc-Tyr^1, D-Arg^2, Phe(pCl)^6, Cit^8, Cit^9, Abu^15, Nle^27, D-Arg^28, Har^29]hGH-RH(1-29)NH2] (PhAc-Y[dR]DAI[Phe(4-Cl)]T[Cit][Cit]YRKVL[Abu]QLSARKLLQDI[Nle][dR][hArg]-NH2): in experiment [1], the “GH response (% of control) 0 min” value is 22 % of control, the “GH response (% of control) 30 min” value is recorded as 26 % of control, the “GH response (% of control) 60 min” value is given as 27 % of control and the “GH response (% of control) 90 min” value is reported as 45 % of control. In experiment [2], the “binding affinities” value is reported as “extremely high binding affinities”.
In the case of `CCCC[C@H](NC(=O)[C@@H](NC(=O)[C@H](CC(=O)O)NC(=O)[C@H](CCC(N)=O)NC(=O)[C@H](CC(C)C)NC(=O)[C@H](CC(C)C)NC(=O)[C@H](CCCCN)NC(=O)[C@H](CCCNC(=N)N)NC(=O)[C@H](C)NC(=O)[C@H](CO)NC(=O)[C@H](CC(C)C)NC(=O)[C@H](CCC(N)=O)NC(=O)[C@H](CC)NC(=O)[C@H](CC(C)C)NC(=O)[C@@H](NC(=O)[C@H](CCCCN)NC(=O)[C@H](CCCNC(=N)N)NC(=O)[C@H](Cc1ccc(OC)cc1)NC(=O)[C@H](Cc1c[nH]cn1)NC(=O)[C@H](CC(N)=O)NC(=O)[C@@H](NC(=O)[C@H](Cc1ccc(Cl)cc1)NC(=O)[C@@H](NC(=O)[C@H](C)NC(=O)[C@H](CC(=O)O)NC(=O)[C@@H](CCCNC(=N)N)NC(=O)[C@H](Cc1ccc(O)cc1)NC(=O)Cc1ccccc1)[C@@H](C)CC)[C@@H](C)O)C(C)C)[C@@H](C)CC)C(=O)N[C@H](CCCNC(=N)N)C(=O)N[C@@H](CCCCNC(=N)N)C(N)=O` [Peptide 69, [PhAc-Tyr^1, D-Arg^2, Phe(pCl)^6, His^9, Tyr(Me)^10, Abu^15, Nle^27, D-Arg^28, Har^29]hGH-RH(1-29)NH2] (PhAc-Y[dR]DAI[Phe(4-Cl)]TNHY(Me)RKVL[Abu]QLSARKLLQDI[Nle][dR][hArg]-NH2), in experiment [1], the “GH response (% of control) 0 min” value is on record as 9 % of control, the “GH response (% of control) 30 min” value is 12 % of control, the “GH response (% of control) 60 min” value is 18 % of control and the “GH response (% of control) 90 min” value was 18 % of control. In experiment [1], the “GH response (% of control) 120 min” value was 25 % of control and the “endocrine antagonistic potency: inhibition of the GH release stimulated by hGH-RH(1-29)NH2 (in words)” value is “high endocrine antagonistic potencies”. Besides, the “binding affinities” value in experiment [2] is recorded as “extremely high binding affinities”.
